Entries after “also recorded” stand apart in the source; their conditions may differ. Where two headings read alike, the source gives them in different places.

The target of experiment [1] is T1, AChE (Homo sapiens, UniProt P22303). The conditions noted are these: cited from earlier work.
For experiment [2], the system named is BuChE. The conditions noted are these: read-out: IC50 against BuChE, cited from earlier work.
For experiment [3], the target named is T1, AChE. In words: biochemical. The conditions noted are these: mean ± SD. On the procedure:
(§1) A previously described modified protocol of Ellman's spectrophotometric assay in clear flat-bottomed, 96-well plates, was used. […] The absorbance of each well was measured at 415 nm using a microplate reader. […]

Experiment [4] deals with BChE (Homo sapiens, UniProt P06276). In words: BChE inhibition, modified Ellman's spectrophotometric assay. The experiment is classed as biochemical. On the procedure: as §1
Sequence of BChE (P06276 29-602): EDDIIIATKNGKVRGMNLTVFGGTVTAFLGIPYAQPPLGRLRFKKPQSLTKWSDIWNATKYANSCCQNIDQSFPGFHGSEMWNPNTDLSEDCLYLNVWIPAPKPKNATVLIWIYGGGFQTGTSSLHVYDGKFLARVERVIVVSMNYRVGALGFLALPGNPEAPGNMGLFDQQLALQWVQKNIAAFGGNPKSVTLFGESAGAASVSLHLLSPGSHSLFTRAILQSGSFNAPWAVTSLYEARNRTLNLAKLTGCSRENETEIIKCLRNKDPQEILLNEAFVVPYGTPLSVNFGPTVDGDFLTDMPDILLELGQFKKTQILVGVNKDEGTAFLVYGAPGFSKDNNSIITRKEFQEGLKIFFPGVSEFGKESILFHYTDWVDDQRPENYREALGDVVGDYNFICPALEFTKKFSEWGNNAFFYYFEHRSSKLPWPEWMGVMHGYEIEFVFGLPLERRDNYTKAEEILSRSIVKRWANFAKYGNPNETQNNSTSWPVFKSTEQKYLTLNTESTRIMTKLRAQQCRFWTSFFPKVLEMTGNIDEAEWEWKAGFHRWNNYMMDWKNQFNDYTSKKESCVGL
(DTNB colorimetry detects thiols as they appear.)

The target in experiment [5] is T1, AChE. The experiment in a line: Kinetic study of AChE inhibition (Lineweaver-Burk plots, Ellman's method). The experiment is classed as biochemical. On the procedure: The kinetic study of AChE was carried out at five different concentrations (0–8 µM) of compound 4ad by Ellman's method. […]. The inhibition constant Ki was calculated by the plot of slopes versus the corresponding concentrations of the 4ad.

Setting [6] is: Fig. 2 traditional AChE inhibitors, read-out: IC50 against AChE.
[7] abbreviates: Fig. 2 traditional AChE inhibitors.
The mark [8] stands for this setting: 50 µM compound, NA = not active.
Where [9] appears, read: 50 µM compound, mean ± SD, NA = not active.
The mark [10] stands for this setting: Fig. 3, read-out: IC50 against AChE.

T1 sequence (P22303 32-614): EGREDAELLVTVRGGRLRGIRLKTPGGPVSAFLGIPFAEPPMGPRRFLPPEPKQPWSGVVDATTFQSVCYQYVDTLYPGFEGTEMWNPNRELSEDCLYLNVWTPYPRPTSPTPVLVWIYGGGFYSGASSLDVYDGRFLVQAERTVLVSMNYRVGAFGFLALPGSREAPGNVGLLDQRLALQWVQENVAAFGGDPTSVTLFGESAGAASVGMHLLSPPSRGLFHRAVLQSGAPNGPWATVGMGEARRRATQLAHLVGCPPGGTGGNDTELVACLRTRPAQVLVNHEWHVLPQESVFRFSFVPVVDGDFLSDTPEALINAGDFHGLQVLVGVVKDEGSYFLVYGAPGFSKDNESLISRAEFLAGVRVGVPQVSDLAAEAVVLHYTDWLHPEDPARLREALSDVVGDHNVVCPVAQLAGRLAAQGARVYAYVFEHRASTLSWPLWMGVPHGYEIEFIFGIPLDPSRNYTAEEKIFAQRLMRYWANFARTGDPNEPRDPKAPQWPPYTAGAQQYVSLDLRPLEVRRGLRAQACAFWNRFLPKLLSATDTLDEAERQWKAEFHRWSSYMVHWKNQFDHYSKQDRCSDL

For orientation: IC50 means the concentration that gives 50% inhibition. For the compound `Cc1nc2ccccc2c2cc[nH]c12` [G], the IC50 in experiment [1] (Fig. 3, target per b17 AChE, read-out: IC50) is 4.9 ± 0.9 µM.

Take `c1ccc(C[n+]2ccc(-c3nc4ccccc4s3)cc2)cc1` [C]: the IC50 in experiment [1] (setting [6]) was 0.014 µM; in experiment [2] (setting [7]) it was 0.182 µM.

As to `COc1cccc2cc(C(=O)/C=C/c3ccc[n+](Cc4ccccc4Br)c3)oc12` [D], the half-maximal inhibitory concentration (IC50) in experiment [1] (setting [6]) was 0.027 µM.

In general, inhibition refers to how much of the control response was suppressed. A low value points to a weak effect. Take `Cc1ccc(-c2c(C(C#N)C(N)=O)c([N+](=O)[O-])c(NCc3ccco3)n2Cc2ccco2)cc1` (stereo not shown) [Compound 4o, 2-cyano-2-(1-(furan-2-ylmethyl)-5-((furan-2-ylmethyl)amino)-4-nitro-2-(p-tolyl)-1H-pyrrol-3-yl)acetamide]: the inhibition at 50 µM in experiment [3] (setting [8]) is 19.8 ± 4.18%; in experiment [4] (setting [9]), 46.1 ± 6.43%. This compound showed an IC50 in experiment [4] (mean ± SD) of 69.2 ± 5.09 µM.

As for `Cc1ccc(-c2c(C(C#N)C(N)=O)c([N+](=O)[O-])c3n2CCCN3)cc1` (stereo not shown) [Compound 4a, 2-cyano-2-(8-nitro-6-(p-tolyl)-1,2,3,4-tetrahydropyrrolo[1,2-a]pyrimidin-7-yl)acetamide], the inhibition at 50 µM in experiment [3] (setting [8]) is 14.7 ± 2.26%; in experiment [4] (setting [9]) it was 26.1 ± 4.09%.

As for “Ethyl3-amino-2-(5-(methylthio)-4-nitro-1-phenyl-2-(p-tolyl)-1H-pyrrol-3-yl)-3-oxopropanoate [Compound 4ak]”, the “AChE % inhibition at 50 µM” value in experiment [3] (setting [8]) amounted to 20.79 ± 2.62%. Besides, the “BChE % inhibition at 50 µM” value in experiment [4] (setting [9]) is on record as 25.56 ± 6.89%.

`CCOC(=O)C(C(N)=O)c1c([N+](=O)[O-])c(SC)n(-c2ccc(OC)cc2)c1-c1ccc(Cl)cc1` (stereo not shown) [Compound 4ac, Ethyl 3-amino-2-(2-(4-chlorophenyl)-1-(4-methoxyphenyl)-5-(methylthio)-4-nitro-1H-pyrrol-3-yl)-3-oxopropanoate]: the inhibition at 50 µM in experiment [3] (setting [8]) stood at 11.8 ± 3.92%; in experiment [4] (setting [9]) it was 33.8 ± 4.84%.

Consider `CSc1c([N+](=O)[O-])c(C(C#N)C(N)=O)c(-c2ccc(C)cc2)n1-c1ccc(O)cc1` (stereo not shown) [Compound 4ae, 2-cyano-2-(1-(4-hydroxyphenyl)-5-(methylthio)-4-nitro-2-(p-tolyl)-1H-pyrrol-3-yl)acetamide], for which the inhibition at 50 µM in experiment [3] (setting [8]) turned out to be 52.4 ± 5.07%; in experiment [4] (setting [9]) it was 17.1 ± 3.49%. The IC50 in experiment [3] is 33.1 ± 3.11 µM.

Take `CCOC(=O)C(C(N)=O)c1c([N+](=O)[O-])c(NCc2ccco2)n(Cc2ccco2)c1-c1ccc(C)cc1` (stereo not shown) [Compound 4q, Ethyl3-amino-2-(1-(furan-2-ylmethyl)-5-((furan-2-ylmethyl)amino)-4-nitro-2-(p-tolyl)-1H-pyrrol-3-yl)-3-oxopropanoate]: the inhibition at 50 µM amounted to 17.8 ± 2.44% in experiment [3] (setting [8]) and 68.4 ± 6.35% in experiment [4] (setting [9]). The same compound displayed a half-maximal inhibitory concentration (IC50) in experiment [4] (mean ± SD) of 18.6 ± 2.71 µM.

`O=C1c2ccccc2C(=O)N1Cc1cc[n+](Cc2ccc(F)cc2)cc1` [B]: the IC50 in experiment [1] (setting [6]) was 0.77 µM; in experiment [2] (setting [7]), 8.71 µM.

Turning to `O=C(NC1CCN(Cc2ccccc2)CC1)c1cc(-c2cccc([N+](=O)[O-])c2)on1` [F], the IC50 in experiment [1] (setting [6]) is 16.1 µM; in experiment [2] (setting [7]), 15.2 µM.

For the compound `CC1(C)CNc2c([N+](=O)[O-])c(C(C#N)C(N)=O)c(-c3ccc(Cl)cc3)n2C1` (stereo not shown) [Compound 4e, 2-(6-(4-chlorophenyl)-3,3-dimethyl-8-nitro-1,2,3,4-tetrahydropyrrolo[1,2-a]pyrimidin-7-yl)-2-cyanoacetamide], the inhibition at 50 µM in experiment [3] (setting [8]) stood at 57 ± 5.46%; in experiment [4] (setting [9]) it was 18.1 ± 2.89%. In experiment [3], this compound came in with a 50% inhibitory concentration (IC50) of 36.3 ± 4.85 µM.

For `CN1CCC2COc3ccccc3C21` (stereo not shown) [H], the values for the concentration for half-maximal inhibition (IC50) in experiment [1] (setting [10]) and in experiment [2] (Fig. 3) were 7.75 µM and 7.23 µM, respectively.

For orientation: Ki means the equilibrium dissociation constant of an inhibitor or competing ligand from its target. For `CCOC(=O)c1[nH]c(-c2ccccc2)cc1-c1ccccc1` [I], the IC50 in experiment [1] (setting [10]) is 128 µM. Also, the inhibition constant (Ki) in experiment [1] (Fig. 3, read-out: Ki against AChE) was 104 ± 15.4 µM.

`CCOC(=O)C(C(N)=O)c1c([N+](=O)[O-])c2n(c1-c1ccccc1)CC(C)(C)CN2` (stereo not shown) [Compound 4d, Ethyl3-amino-2-(3,3-dimethyl-8-nitro-6-phenyl-1,2,3,4-tetrahydropyrrolo[1,2-a]pyrimidin-7-yl)-3-oxopropanoate]: the results for the inhibition at 50 µM in experiment [3] (setting [8]) and in experiment [4] (setting [9]) were 13.5 ± 1.58% and 13.5 ± 2.96%, respectively.

For the compound `CSc1c([N+](=O)[O-])c(C(C#N)C(N)=O)c(-c2ccc(Cl)cc2)n1-c1ccc(O)cc1` (stereo not shown) [Compound 4ad, 2-(2-(4-chlorophenyl)-1-(4-hydroxyphenyl)-5-(methylthio)-4-nitro-1H-pyrrol-3-yl)-2-cyanoacetamide], the inhibition at 50 µM in experiment [3] (setting [8]) came out at 89.8 ± 2.36%; in experiment [4] (setting [9]), 20 ± 1.33%. Further, the IC50 in experiment [3] came out at 2.95 ± 1.31 µM. Also, the “type of AChE inhibition” value in experiment [5] (Lineweaver-Burk plots, Km and Vmax reduced with increasing inhibitor concentration) was “uncompetitive”. The Ki in experiment [5] (estimated from plot of Km versus concentrations of 4ad (0-8 µM), substrate acetylthiocholine 0.1-1 mM, read-out: inhibition constant, Ki) was 2.84 µM. Moreover, the “BChE inhibition (in words)” value in experiment [4] was “no significant inhibition; also recorded: inactive”.

On to `COc1ccc(-c2[nH]c(N)c([N+](=O)[O-])c2C(C#N)C(N)=O)cc1` (stereo not shown) [Compound 4x, 2-(5-amino-2-(4-methoxyphenyl)-4-nitro-1H-pyrrol-3-yl)-2-cyanoacetamide], for which the figures for the inhibition at 50 µM in experiment [3] (setting [8]) and in experiment [4] (setting [9]) were 47.7 ± 3.91% and 19.4 ± 3.91%, respectively.

Source of the values: paper PMC9454393 (Scientific Reports, 2022).
